Assay results taken from paper PMC5869712 (Scientific Reports, 2018).

Assays:
[1] = tested on: cytokine gene transcription in joint tissue of CIA mice; assay: Cytokine gene expression in joints of CIA mice by RT-PCR; assay type: in vivo, mouse
[2] = tested on: DBA/1 mice with collagen-induced arthritis; assay: Collagen-induced arthritis mouse model: clinical score, histology, safety; assay type: in vivo; details: CIA mice; 30 mg/kg; model group 3.8; grades 0-4
Method: The animal protocol was approved by the Animal Care and Use Committee of Sichuan University in China (IACUC number: 20100318). DBA/1 J mice (male, 6 weeks old) were obtained from Jackson Laboratory (Bar Harbor, ME). One day before the start of the experiment, CII solution (2 mg/ml) was prepared with 0.05 M acetic acid and stored at 4 °C. Just before the immunization, equal volumes of IFA and CII were mixed by a homogenizer in a precooled glass bottle in an ice water bath. Arthritis was induced in 8-week old male DBA/1 mice by immunizations with a 1:1 emulsion of bovine type II collagen (Chondrex) and Freund’s complete adjuvant (Sigma-Aldrich) on day 0 and with a 1:1 emulsion of bovine type II collagen in Freund’s incomplete adjuvant (Sigma-Aldrich) on day 21. […] On the day treatment was initiated, the mice were randomly assigned to controls (no collagen injection plus vehicle; […]. Mice were scored daily for signs of arthritis for 33 days. CIA development was inspected three times per week, and the inflammation of the four paws was graded from 0 to 4 (grade 0, paws with no swelling or focal redness; grade 1, paws with swelling of finger joints; grade 2, paws with a mild swelling of the ankle or wrist joints; grade 3, paws with severe inflammation of the entire paw; and grade 4, paws with deformity or ankylosis). Each paw was graded, and the four scores were totalled so that the possible maximum score per mouse was 16.
DBA1/J mice were sacrificed on day 33 after treatment and ankle joints were removed and fixed with 4% paraformaldehyde for more than 48 h. The joints were decalcified in EDTA buffer for 21 days and then embedded in paraffin blocks. Joint sections were stained with H&E or safranin O-fast green. Histological changes were examined under microscope using methods modified from McKew et al.[43] as follows: grade 0 = no abnormal findings; grade 1 = synoviocyte hypertrophy, slight synovial membrane fibrosis, slight-to-mild inflammatory cell infiltrates into the synovial membrane/articular capsule and/or joint space; grade 2 = grade 1 plus mild-to-moderate inflammatory cell infiltrates, pannus formation (if present) minimal with superficial cartilage erosion; grade 3 = grade 2 plus marked inflammatory cell infiltrates and fibrosis, mild-to-severe erosion of the cartilage extending into the subchondral bone; and grade 4 = loss of joint integrity through erosion or destruction with bone remodelling, massive inflammatory cell infiltrates, fibrosis, and ankylosis.

C[C@@H]1CCN(C(=O)CC#N)C[C@@H]1N(C)c1ncnc2[nH]ccc12 [Tofacitinib, reference compound]
IL-10 expression [1]: significantly increased its expression | group mean histological severity score [2]: 1.8
